According to patent US10561656B2, “Organic compounds” (INTRA-CELLULAR THERAPIES, INC., priority 2011, dated 2020):

How the values were obtained:
[1] = molecular target: recombinant full length human PDE1A (r-hPDE1A) (Homo sapiens (Human), UniProt P54750); assay: IMAP phosphodiesterase assay, r-hPDE1A; type: biochemical; conditions: IMAP fluorescence polarization, FL-GMP substrate
From the text: (§1) Phosphodiesterase 1B (PDE1B) is a calcium/calmodulin dependent phosphodiesterase enzyme that converts cyclic guanosine monophosphate (cGMP) to 5′-guanosine monophosphate (5′-GMP). PDE1B can also convert a modified cGMP substrate, such as the fluorescent molecule cGMP-fluorescein, to the corresponding GMP-fluorescein. The generation of GMP-fluorescein from cGMP-fluorescein can be quantitated, using, for example, the IMAP (Molecular Devices, Sunnyvale, Calif.) immobilized-metal affinity particle reagent.
(§2) Briefly, the IMAP reagent binds with high affinity to the free 5′-phosphate that is found in GMP-fluorescein and not in cGMP-fluorescein. The resulting GMP-fluorescein—IMAP complex is large relative to cGMP-fluorescein. Small fluorophores that are bound up in a large, slowly tumbling, complex can be distinguished from unbound fluorophores, because the photons emitted as they fluoresce retain the same polarity as the photons used to excite the fluorescence.
(§3) In the phosphodiesterase assay, cGMP-fluorescein, which cannot be bound to IMAP, and therefore retains little fluorescence polarization, is converted to GMP-fluorescein, which, when bound to IMAP, yields a large increase in fluorescence polarization (Δmp) Inhibition of phosphodiesterase, therefore, is detected as a decrease in Δmp.
Materials: All chemicals are available from Sigma-Aldrich (St. Louis, Mo.) except for IMAP reagents (reaction buffer, binding buffer, FL-GMP and IMAP beads), which are available from Molecular Devices (Sunnyvale, Calif.).
Assay: The following phosphodiesterase enzymes may be used: 3′,5′-cyclic-nucleotide-specific bovine brain phosphodiesterase (Sigma, St. Louis, Mo.) (predominantly PDE1B) and recombinant full length human PDE1A and PDE1B (r-hPDE1A and r-hPDE1B respectively) which may be produced e.g., in HEK or SF9 cells by one skilled in the art. The PDE1 enzyme is reconstituted with 50% glycerol to 2.5 U/ml. One unit of enzyme will hydrolyze 1.0 μmole of 3′,5′-cAMP to 5′-AMP per min at pH 7.5 at 30° C. One part enzyme is added to 1999 parts reaction buffer (30 μM CaCl2, 10 U/ml of calmodulin (Sigma P2277), 10 mM Tris-HCl pH 7.2, 10 mM MgCl2, 0.1% BSA, 0.05% NaN3) to yield a final concentration of 1.25 mU/ml. […]
(§4) The FL-GMP conversion reaction is initiated by combining 4 parts enzyme and inhibitor mix with 1 part substrate solution (0.225 μM) in a 384-well microtiter plate. […] The plate is incubated at room temperature for 1 hour to allow IMAP binding to proceed to completion, and then placed in an Envision multimode microplate reader (PerkinElmer, Shelton, Conn.) to measure the fluorescence polarization (Δmp).
(§5) A decrease in GMP concentration, measured as decreased Δmp, is indicative of inhibition of PDE activity.

[2] = molecular target: recombinant full length human PDE1B (r-hPDE1B) (Homo sapiens (Human), UniProt Q01064); assay: IMAP phosphodiesterase assay, r-hPDE1B; type: biochemical; conditions: IMAP fluorescence polarization, FL-GMP substrate
From the text: as §1, §2, §3
Materials: All chemicals are available from Sigma-Aldrich (St. Louis, Mo.) except for IMAP reagents (reaction buffer, binding buffer, FL-GMP and IMAP beads), which are available from Molecular Devices (Sunnyvale, Calif.). […]
as §4, §5

C57BL/6 mice = assay: Haloperidol-induced catalepsy model (bar grip test); type: in vivo; conditions: mouse, PO, haloperidol 3 mg/kg PO, step down latency
From the text: To evaluate the potential beneficial effects to motor defects present in schizophrenics treated with typical and atypical antipsychotic agents and in Parkinson's disease patients, the compounds of the invention may be tested in a reversal of catalepsy model in which motor freezing, or catalepsy, is induced by potent dopamine D2 receptor antagonists such as haloperidol or risperidone. The method uses the “bar grip test”, in which the front paws of the mouse are placed so as to grip a 3 mm-diameter, suspended wooden bar. A “step down latency” is measured by recording the time until the mouse removes its paws from the wooden bar to the floor surface. […]
A total of seventeen (17) eight week-old, male, C57BL/6 mice (Jackson Laboratories) are used in a typical experiment testing the effect of the compound of Example 1 or 2. […] A catalepsy score is recorded for each mouse at 2, 3, 4 and 6 hours after administration of drugs. […] The latency until the mouse steps both paws down from the bar to the floor surface (i.e., step down latency) is recorded up to 120 sec. […] If none of the 10 attempts are beyond 10 sec, the longest duration recorded is used as the catalepsy score. Otherwise, the initial cataleptic duration (>10 sec) is recorded during the 120 sec testing time. Mean step down latency is calculated for each treatment group. […]

rats = assay: Novel Object Recognition (NOR) assay; type: in vivo; conditions: rat, 0.3 mg/Kg PO, dosed 2 hours before T1, p<0.01
From the text: To measure the cognition-enhancing effects of the compounds of the invention, the candidate compounds may be evaluated in a Novel Object Recognition (NOR) assay. This assay protocol is described in detail in Ennaceur et al., Behav. Brain Res. (1988) 31:47-59 and Prickaerts et al., Eur. J. Pharmacol. (1997) 337:125-136, the contents of each of which are incorporated by reference in their entirety. In this protocol, the rats are introduced to a chamber at time T1 and allowed to interrogate two identical “familiar objects” for six minutes. Twenty four hours later, they are re-introduced to this chamber, where one of the familiar objects has been replaced with a novel object. The “discrimination index”, a measure of the time spent in close proximity to the novel over the familiar object, may then be measured. Since rodents will forget the original experience at T1 within 4 hours, this test with a 24 h interval is a measure of strong cognitive enhancement.
This assay protocol can be modified in order to evaluate different phases of memory. There are three general phases of memory, namely, acquisition, consolidation and retrieval. In this modified protocol, the rats may be dosed with the candidate compound two hours before T1 and tested 24 h later, without additional dosing. This is a test of the acquisition process. […]

Row | Compound | IC50 [1] | IC50 [2] | minimal dose active in catalepsy model (C57BL/6 mice) | activity versus vehicle in Novel Object Recognition (rats)
1 | CCSc1c2c(nn1Cc1ccc(-c3ccc(F)cn3)cc1)N1CC(C)(C)N=C1N(C)C2=O [Example 1, 3-(ethylthio)-2-(4-(5-fluoropyridin-2-yl)benzyl)-5,7,7-trimethyl-7,8-dihydro-2H-imidazo[1,2-a]pyrazolo[4,3-e]pyrimidin-4(5H)-one] | 2.7 nM | 11000 nM | < 0.1 mg/kg | active versus vehicle
2 | CCSc1c2c(nn1Cc1ccc(-c3cccc(F)n3)cc1)N1CC(C)(C)N=C1N(C)C2=O [Example 2, 3-(ethylthio)-2-(4-(6-fluoropyridin-2-yl)benzyl)-5,7,7-trimethyl-7,8-dihydro-2H-imidazo[1,2-a]pyrazolo[4,3-e]pyrimidin-4(5H)-one] | 1 nM | 4000 nM | < 0.1 mg/kg | –
3 | CCSc1c2c(nn1Cc1ccc(-c3cccc(F)n3)cc1)N1C(=N[C@@H]3CCC[C@@H]31)N(C)C2=O [Example 3-A, (6aR,9aS)-5,6a,7,8,9,9a-hexahydro-5-methyl-3-(ethylthio)-2-(4-(6-fluoropyridin-2-yl)benzyl)-cyclopent[4,5]imidazo[1,2-a]pyrazolo[4,3-e]pyrimidin-4(2H)-one] | 1.5 nM | 27000 nM | – | –
4 | CC(C)Sc1c2c(nn1Cc1ccc(-c3cccc(F)n3)cc1)N1C(=N[C@@H]3CCC[C@@H]31)N(C)C2=O [Example 3-B, (6aR,9aS)-5,6a,7,8,9,9a-hexahydro-5-methyl-3-(isopropylthio)-2-(4-(6-fluoropyridin-2-yl)benzyl)-cyclopent[4,5]imidazo[1,2-a]pyrazolo[4,3-e]pyrimidin-4(2H)-one] | 6 nM | – | – | –
